Format in all cases: ADME, organism-based, Mesocricetus auratus
Conditions in all cases: in vivo

Data set [1] can be described thus: Tmax in golden hamster at 50 mg/kg, po.
Data set [2] in a line: AUC (0 to 24 hrs) in golden hamster at 50 mg/kg, po. Details: dose 50 mg/kg, time < 24 hr, route oral.
Data set [3] can be described thus: Cmax in golden hamster at 50 mg/kg, po. Details: dose 50 mg/kg, route oral.

As for `O=C(Nc1cc(-c2ccccn2)n[nH]1)N1CCN(c2ccc(F)cc2)CC1`, in data set [1], the Tmax came to 1.33 h. Also, the AUC(0-t) at 24 h in data set [2] is 25400 ng·h/mL. In addition, the Cmax in data set [3] amounted to 5680 ng/mL.

Broadly, the Tmax is the time from dosing to the highest level. For orientation: AUC(0-t) means the area under the concentration-time curve up to a stated or last time point. A lower AUC(0-t) goes with less exposure. A word on the Cmax: it is the peak of the concentration-time curve.
